A short description of this data set: Solubility study of adapalene with randomly methylated β-cyclodextrins. Type of data set: physicochemical. The method, then:
A solubility study was performed by adding excess amounts of adapalene (5 mg) to six glass vials containing 10 mL aqueous solutions of increasing concentrations of randomly methylated β-cyclodextrins (0-7×10^−3 M) dissolved in 154 mM NaCl and 10 mM Na-phosphate (pH 7). The samples were mixed at room temperature for six days, and then they were centrifuged at 4000 rpm for 3 minutes. The supernatants were filtered through a 0.2 μm filter in order to remove undissolved adapalene. The UV absorbance of the filtrates was then measured at 320 nm in order to determine the concentration of dissolved adapalene. The concentration of adapalene in each sample was calculated from a calibration curve.
For sample 1, from the solubility diagram study in Example 16 containing 0.7 mM randomly methylated β-cyclodextrin and an excess of adapalene, 550 μl of the filtered sample, was added to a 2 ml Eppendorf tube. The sample was then lyophilized and the solvent exchanged to D2O.
Sample 2 containing 1.5 mM randomly methylated β-cyclodextrin and 0.15 mM of adapalene dissolved in D2O and 1% DMSO-d6 was prepared by adding 550 μl of the sample to a 2 ml Eppendorf tube. The sample was then lyophilized and the solvent exchanged again to D2O.

Take `COc1ccc(-c2ccc3cc(C(=O)O)ccc3c2)cc1C12CC3CC(CC(C3)C1)C2` [adapalene, 6-[3-(1-adamantyl)-4-methoxy-phenyl] naphthalene-2-carboxylic acid]: the Solubility of adapalene entry (randomly methylated β-cyclodextrins 0-7×10^−3 M, 154 mM NaCl, 10 mM Na-phosphate pH 7, room temperature, six days (FIG. 3)) is recorded as “increases with increasing CD concentration”. Also, the Complexed adapalene result (sample 1: 0.7 mM randomly methylated β-cyclodextrin, excess adapalene, filtered, according to solubility diagram data) is on record as “about 0.075 mM”; the Complexed adapalene entry (sample 2: 1.5 mM randomly methylated β-cyclodextrin and 0.15 mM adapalene in D2O and 1% DMSO-d6) was “about 0.15 mM”.

The values above are taken from US10988600B2, “Cyclodextrin-grafted cross-linked hyaluronic acid complexed with active drug substances and uses thereof” (GALDERMA S.A., priority 2016, dated 2021).
